We go through 19 molecules from patent US10287276B2, “Heteroaryl-1,2,4-triazole and heteroaryl-tetrazole compounds for controlling ectoparasites” (Elanco Tiergesundheit AG, priority 2016, dated 2019).

In test [1] the test system is Rhipicephalus sanguineus (Dog Tick). The test is described as follows: Activity in vitro against Rhipicephalus sanguineus (dog tick), Assay A, contact test. As to conditions: Rhipicephalus sanguineus, 168 h, at 100 ppm, adult ticks, 28° C. and 80% relative humidity for 7 days, read-out: efficacy (EC80). The protocol: Activity In Vitro Against Rhipicephalus sanguineus (Dog Tick)—Assay A
A contact test is performed by pre-coating microplate with serial dilution of compound allowing evaluating anti-parasitic activity by contact against ticks. A mixed adult tick population is then distributed to each well of the plate and incubated at 28° C. and 80% relative humidity for 7 days, during which the effect of the test compound is monitored. Acaricidal activity is confirmed if and when adult ticks are dead.

The test system of a further test is Lice (Polyplax serrata). The test is described as follows: Activity in vivo against lice (Polyplax serrata) in mice (topical). As to conditions: pour-on application, live lice on day +4 and +14, Henderson & Tilton formula, read-out: efficacy (EC90). The protocol: Activity In Vivo Against Lice (Polyplax serrata) in Mice (Topical) Mice naturally infected with P. serrata are treated with the formulated test compound on day 0 by pour-on application. On day +4 and +14, efficacy is evaluated by counting the number of live lice under a binocular. Efficacy at the two time points is expressed as a comparison of lice numbers counted on the same mouse before treatment, using the Henderson & Tilton formula, taking also into account lice numbers found on mice treated with the empty formulation (placebo group): [formula] n=number of lice, T=treated group, Co=control/placebo group.

The subject of test [2] is Lucilla Cuprina (Australian sheep blowfly). Briefly: Activity in vitro against Lucilla cuprina (Australian sheep blowfly), Assay A. Particulars: Lucilia cuprina, 96 h; at 32 ppm; eggs on agar-based medium, 4 days at 28° C. and 60% relative humidity; read-out: efficacy (EC80). The protocol: Activity in vitro against Lucilla Cuprina (Australian sheep blowfly)—Assay A
Freshly laid blowfly eggs are used to seed a suitably formatted microplate containing the test substances to be evaluated for antiparasitic activity. Each compound is tested by serial dilution in order to determine its minimum efficacy dose. The test compounds are embedded in an agar-based nutritive medium allowing the full development of the eggs into 3rd instar larvae. The incubation lasts for 4 days at 28° C. and 60% relative humidity. Egg-hatching and ensuing larval development are also recorded to identify a possible growth-regulating activity.

In test [3] the test system is Ctenocephalides Felis (Cat Flea). Briefly: Activity in vitro against Ctenocephalides felis (cat flea), Assay A. Particulars: Ctenocephalides felis; at 100 ppm; adult fleas fed on treated blood for 24 h; dead fleas counted; read-out: efficacy (EC80). The protocol: Activity In Vitro Against Ctenocephalides Felis (Cat Flea)—Assay A
A mixed adult population of fleas is placed in a suitably formatted 96-well plate allowing fleas to access and feed on treated blood via an artificial feeding system. Fleas are fed on treated blood for 24 h, after which the compound effect is recorded. Insecticidal activity is determined on the basis of the number of dead fleas recovered from the feeding system.

The subject of test [4] is Engorged Female Rhipicephalus microplus (Cattle Tick). Briefly: Activity in vitro against engorged female Rhipicephalus microplus (cattle tick), contact test. As to conditions: 672 h, organophosphorous-resistant Ultimo strain, evaluation 28 days later on mortality, oviposition and hatched larvae, read-out: efficacy (EC80). The protocol: Activity In Vitro Against Engorged Female Rhipicephalus microplus (Cattle Tick)
A contact test is performed by pre-coating 6-well microplates with serial dilution of the compound to be evaluated for anti-parasitic activity. 10 engorged female ticks of the organophosphorous-resistant Ultimo strain are distributed to each well in triplicates. Plates are then incubated at 28° C. and 80% relative humidity. Evaluation takes place 28 days later based on mortality, oviposition and hatched larvae. […] Activity In Vivo Against Rhipicephalus sanguineus Nymphs on Mongolian Gerbils (Meriones unguiculatus) (Spray Application)

On to `CC(c1ncnn1-c1ncccn1)N(CCC(F)(F)F)C(=O)c1cc(Cl)cc(OC(F)(F)F)c1` (stereo not drawn) [Example 27, 3-Chloro-N-[1-(2-pyrimidin-2-yl-1,2,4-triazol-3-yl)ethyl]-5-(trifluoromethoxy)-N-(3,3,3-trifluoropropyl)benzamide], for which the pest or weed control at 100 ppm in test [1] and in test [3] was greater than 80% each time. In the test with Lice (Polyplax serrata), the inhibition in vivo at 32 mg/kg is greater than 90%. For the same molecule, the pest or weed control at 32 ppm in test [2] was greater than 80%.

Consider `CC(c1ncnn1-c1ncccn1)N(CCF)C(=O)c1cncc(C(F)(F)F)c1` (stereo not drawn) [Example 30, N-(2-Fluoroethyl)-N-[1-(2-pyrimidin-2-yl-1,2,4-triazol-3-yl)ethyl]-5-(trifluoromethyl)pyridine-3-carboxamide], for which the pest or weed control at 100 ppm in test [1] and in test [3] was greater than 80% each time. Moreover, the inhibition in vivo at 32 mg/kg in the test on Lice (Polyplax serrata) is greater than 90%. Also, the pest or weed control at 32 ppm in test [2] was greater than 80%.

On to `CC(c1ncnn1-c1ccccn1)N(CC1CC1)C(=O)c1cc(Cl)cc(C(F)(F)F)c1` (stereo not drawn) [Example 6, 3-Chloro-N-(cyclopropylmethyl)-N-[1-[2-(2-pyridyl)-1,2,4-triazol-3-yl]ethyl]-5-(trifluoromethyl)benzamide], for which the pest or weed control at 100 ppm in test [1] and in test [3] was greater than 80% in each case. The pest or weed control at 200 ppm in test [4] is greater than 80%. For the same molecule, in test [2], the pest or weed control at 32 ppm was greater than 80%.

Consider `Cc1nc(C(C)N(CC2CC2)C(=O)c2cccc(C#N)c2)n(-c2ccccn2)n1` (stereo not drawn) [Example 34, 3-Cyano-N-(cyclopropylmethyl)-N-[1-[5-methyl-2-(2-pyridyl)-1,2,4-triazol-3-yl]ethyl]benzamide], for which the pest or weed control at 100 ppm in test [1] and in test [3] was greater than 80% throughout.

Take `CC(c1ncnn1-c1ncccn1)N(CCCF)C(=O)c1cc(C(F)(F)F)cc(C(F)(F)F)c1` (stereo not drawn) [Example 21, N-(3-Fluoropropyl)-N-[1-(2-pyrimidin-2-yl-1,2,4-triazol-3-yl)ethyl]-3,5-bis(trifluoromethyl)benzamide]: the inhibition in vivo at 32 mg/kg in the test on Lice (Polyplax serrata) is greater than 90%. In test [4], the pest or weed control at 200 ppm is greater than 80%. Moreover, in test [2], the pest or weed control at 32 ppm was greater than 80%. The pest or weed control at 100 ppm in test [3] was greater than 80%.

Regarding `CC(c1ncnn1-c1ccccn1)N(Cc1cccc(Cl)c1)C(=O)c1cccc(C#N)c1` (stereo not drawn) [Example 5, N-[(3-Chlorophenyl)methyl]-3-cyano-N-[1-[2-(2-pyridyl)-1,2,4-triazol-3-yl]ethyl]benzamide], the pest or weed control at 100 ppm in test [3] was greater than 80%.

For the molecule `CC(c1ncnn1-c1ccccn1)N(CC1CC1)C(=S)c1cccc(C#N)c1` (stereo not drawn) [Example 47, 3-Cyano-N-(cyclopropylmethyl)-N-[1-[2-(2-pyridyl)-1,2,4-triazol-3-yl]ethyl]benzenecarbothioamide], the pest or weed control at 100 ppm in test [1] and in test [3] was greater than 80% in each case.

For `CCCN(C(=O)c1cc(Cl)cc(Cl)c1)C(C)c1ncnn1-c1ccccn1` (stereo not drawn) [Example 3], the pest or weed control at 100 ppm in test [1] and in test [3] was greater than 80% throughout. In addition, the pest or weed control at 200 ppm in test [4] is greater than 80%. The pest or weed control at 32 ppm in test [2] was greater than 80%.

With `CC(c1ncnn1-c1ccccn1)N(CC1COC1)C(=O)c1cc(C(F)(F)F)cc(C(F)(F)F)c1` (stereo not drawn) [Example 13, N-(Oxetan-3-ylmethyl)-N-[1-[2-(2-pyridyl)-1,2,4-triazol-3-yl]ethyl]-3,5-bis(trifluoromethyl)benzamide], the pest or weed control at 100 ppm in test [1] and in test [3] was greater than 80% each time. Also, the pest or weed control at 32 ppm in test [2] was greater than 80%.

`CC(c1ncnn1-c1ncccn1)N(CCCF)C(=O)c1cc(Cl)cc(OC(F)(F)F)c1` (stereo not drawn) [Example 25, 3-Chloro-N-(3-fluoropropyl)-N-[1-(2-pyrimidin-2-yl-1,2,4-triazol-3-yl)ethyl]-5-(trifluoromethoxy)benzamide]: in the test on Lice (Polyplax serrata), the inhibition in vivo at 32 mg/kg is greater than 90%. In addition, the pest or weed control at 200 ppm in test [4] is greater than 80%. The pest or weed control at 32 ppm in test [2] is greater than 80%. Besides, the pest or weed control at 100 ppm in test [3] was greater than 80%.

In the case of `CC(c1ncnn1-c1ncccn1)N(CCF)C(=O)c1cc(Cl)cc(OC(F)(F)F)c1` (stereo not drawn) [Example 22, 3-Chloro-N-(2-fluoroethyl)-N-[1-(2-pyrimidin-2-yl-1,2,4-triazol-3-yl)ethyl]-5-(trifluoromethoxy)benzamide], the pest or weed control at 200 ppm in test [4] was greater than 80%. Moreover, the pest or weed control at 32 ppm in test [2] is greater than 80%. The pest or weed control at 100 ppm in test [3] was greater than 80%.

On to `CC(c1ncnn1-c1ccccn1)N(CC1CC1(Cl)Cl)C(=O)c1cc(C(F)(F)F)cc(C(F)(F)F)c1` (stereo not drawn) [Example 17, N-[(2,2-Dichlorocyclopropyl)methyl]-N-[1-[2-(2-pyridyl)-1,2,4-triazol-3-yl]ethyl]-3,5-bis(trifluoromethyl)benzamide], for which the inhibition in vivo at 32 mg/kg in the test on Lice (Polyplax serrata) is greater than 90%. The pest or weed control at 200 ppm in test [4] is greater than 80%. In addition, the pest or weed control at 32 ppm in test [2] is greater than 80%. The pest or weed control at 100 ppm in test [3] was greater than 80%.

With `CC(CN(CC1CC1)C(=O)c1cc(C(F)(F)F)cc(C(F)(F)F)c1)c1ncnn1-c1ccccn1` (stereo not drawn) [Example 42, 3-(Cyclopropylmethyl)-N-[2-[2-(2-pyridyl)-1,2,4-triazol-3-yl]propyl]-3,5-bis(trifluoromethyl)benzamide], the pest or weed control at 100 ppm in test [1] and in test [3] was greater than 80% in each case. In addition, the pest or weed control at 32 ppm in test [2] is greater than 80%.

In the case of `C#CCN(C(=O)c1cncc(C(F)(F)F)c1)C(C)c1ncnn1-c1ncccn1` (stereo not drawn) [Example 32, N-Prop-2-ynyl-N-[1-(2-pyrimidin-2-yl-1,2,4-triazol-3-yl)ethyl]-5-(trifluoromethyl)pyridine-3-carboxamide], the pest or weed control at 100 ppm in test [1] and in test [3] was greater than 80% in each case. Further, the pest or weed control at 32 ppm in test [2] was greater than 80%.

On to `CC(c1nnnn1-c1ncccn1)N(CC1CC1)C(=O)c1cc(C(F)(F)F)cc(C(F)(F)F)c1` (stereo not drawn) [Example 33, N-(Cyclopropylmethyl)-N-[1-(1-pyrimidin-2-yltetrazol-5-yl)ethyl]-3,5-bis(trifluoromethyl)benzamide], for which the pest or weed control at 32 ppm in test [2] was greater than 80%.

Consider `C#CCN(C(=O)c1cncc(C(F)(F)F)c1)[C@@H](C)c1ncnn1-c1ncccn1` [Example 43, N-Prop-2-ynyl-N-[(1S)-1-(2-pyrimidin-2-yl-1,2,4-triazol-3-yl)ethyl]-5-(trifluoromethyl)pyridine-3-carboxamide], for which the pest or weed control at 100 ppm in test [1] and in test [3] was greater than 80% each time. Moreover, in test [2], the pest or weed control at 32 ppm was greater than 80%.

As for `CC(c1ncnn1-c1ccccn1)N(CC1CC1)C(=O)c1cc(Cl)cc(Cl)c1` (stereo not drawn) [Example 2, 3,5-Dichloro-N-(cyclopropylmethyl)-N-[1-[2-(2-pyridyl)-1,2,4-triazol-3-yl]ethyl]benzamide], the pest or weed control at 100 ppm in test [1] and in test [3] was greater than 80% throughout. In test [4], the pest or weed control at 200 ppm was greater than 80%. Also, in test [2], the pest or weed control at 32 ppm is greater than 80%.

As to `C#CCN(C(=O)c1cc(C(F)(F)F)cc(C(F)(F)F)c1)[C@@H](C)c1ncnn1-c1ncccn1` [Example 46, N-Prop-2-ynyl-N-[(1S)-1-(2-pyrimidin-2-yl-1,2,4-triazol-3-yl)ethyl]-3,5-bis(trifluoromethyl)benzamide], the pest or weed control at 200 ppm in test [4] is greater than 80%. Also, in test [2], the pest or weed control at 32 ppm was greater than 80%. In addition, in test [3], the pest or weed control at 100 ppm was greater than 80%.

For `CC(c1ncnn1-c1ccccn1)N(CC1CC1)C(=O)c1cccc(OC(F)(F)F)c1` (stereo not drawn) [Example 4, N-(Cyclopropylmethyl)-N-[1-[2-(2-pyridyl)-1,2,4-triazol-3-yl]ethyl]-3-(trifluoromethoxy)benzamide], the pest or weed control at 100 ppm in test [1] and in test [3] was greater than 80% in each case. For the same molecule, the pest or weed control at 200 ppm in test [4] is greater than 80%. Besides, the pest or weed control at 32 ppm in test [2] was greater than 80%.
